# Test results taken from patent publication US12318452B2, “Degraders of WEE1 kinase” (DANA-FARBER CANCER INSTITUTE, INC., priority 2018, dated 2025).
# Assays:
# Wee1 = Wee1 (Homo sapiens, UniProt P30291); experiment: Wee1 degradation immunoblot in OVCAR8 cells; format: cell-based; parameters: endogenous in cells; conditions: 5 hours
# Method: Whole cell lysates for immunoblotting were prepared by pelleting cells from each cell line at 4° C. (300 g) for 5 minutes. The resulting cell pellets were washed 1× with ice-cold PBS and then resuspended in RIPA lysis buffer (Sigma, cat #R0278) supplemented with protease and phosphatase inhibitor tablets (Roche cat #4906845001). Lysates were clarified at 14,000 rpm for 15 minutes at 4° C. prior to quantification by BCA assay (Pierce™, cat #23225). Whole cell lysates were loaded into Bolt 4-12% Bis-Tris Gels (Thermo Fisher, cat #NW04120BOX) and separated by electrophoreses at 95 V for 1.5 hours. The gels were transferred to a nitrocellulose membrane using the iBlot® Gel Transfer at P3 for 7 minutes (Thermo Fisher, cat #IB23001) and then blocked for 1 hour at room temperature in Odyssey® blocking buffer (LICOR® Biosciences, cat #927-50010). Membranes were probed using antibodies against the relevant proteins at 4° C. overnight in 20% Odyssey® Blocking Buffer in 1×TBST. […]
# Compound 13 was profiled in three different ovarian cancer cell lines OVCAR8, COV362, and Kuramochi (FIG. 6C-FIG. 6E). […] After confirming that Compound 13 degraded Wee1 in OVCAR8 cells, with maximal degradation observed at a 100 nM treatment (FIG. 11A), the efficacy of compound 13 and Olaparib combination treatments were evaluated.
# pCDK1 Y15 = experiment: Downstream signalling immunoblot in MOLT4 cells (pCDK1 Y15, cleaved PARP, γH2Ax); format: cell-based
# Method: Whole cell lysates for immunoblotting were prepared by pelleting cells from each cell line at 4° C. (300 g) for 5 minutes. The resulting cell pellets were washed 1× with ice-cold PBS and then resuspended in RIPA lysis buffer (Sigma, cat #R0278) supplemented with protease and phosphatase inhibitor tablets (Roche cat #4906845001). Lysates were clarified at 14,000 rpm for 15 minutes at 4° C. prior to quantification by BCA assay (Pierce™, cat #23225). Whole cell lysates were loaded into Bolt 4-12% Bis-Tris Gels (Thermo Fisher, cat #NW04120BOX) and separated by electrophoreses at 95 V for 1.5 hours. The gels were transferred to a nitrocellulose membrane using the iBlot® Gel Transfer at P3 for 7 minutes (Thermo Fisher, cat #IB23001) and then blocked for 1 hour at room temperature in Odyssey® blocking buffer (LICOR® Biosciences, cat #927-50010). Membranes were probed using antibodies against the relevant proteins at 4° C. overnight in 20% Odyssey® Blocking Buffer in 1×TBST. Membranes were then washed three times with 1×TBST (at least 5 minutes per wash) followed by incubation with the IRDye® goat anti-mouse (LICOR®, cat #926-32210) or goat anti-rabbit (LICOR®, cat #926-32211) secondary antibody (diluted 1:10,000) in 20% Odyssey® Blocking Buffer in 1×TBST for 1 hour at room temperature. After three washes with 1×TBST (at least 5 minutes per wash), the immunoblots were visualized using the ODYSSEY® Infrared Imaging System (LICOR®).
# MOLT4 cells were plated at 1.5 million cells per well in a 6-well plate, with 3 mL of media per well. Cells were then immediately treated with the indicated concentration of the indicated compound and incubated for the indicated amount of time. Cells were collected by transferring each well to a 15 mL conical, centrifuging (1000 rpm for 3 min), then washing the cell pellet 2× with cold PBS. Each cell pellet was then lysed in 100 μL of RIPA lysis buffer (+protease/phosphatase inhibitors). Samples were normalized and prepped in 4×LDS+10% β-mercaptoethanol and boiled for 5 min at 95° C. Lysates were probed for specified proteins by western blotting using the Bolt® system (Life Technologies™)
# The effects of targeted Wee1 degradation on the cell cycle were evaluated. Wee1 is required for the temporal regulation of CDK1 at the G2/M cell-cycle checkpoint, and Wee1 loss therefore […] via activation of CDK1. Following loss of Wee1 activity, cells are expected to enter mitosis before completing DNA repair, ultimately resulting in excessive unrepaired DNA damage, mitotic catastrophe, and apoptosis (Beck et al., Mol. Cell Biol. 32:4226-4236 (2012)).
# MOLT4 proteome = experiment: Multiplexed quantitative mass spectrometry-based proteomics in MOLT4 cells; format: cell-based, human; conditions: 100 nM
# Method: MOLT4 cells were treated with DMSO or 100 nM of compound 13 for 2 or 4 hours in biological triplicates and lenalidomide in biological duplicates for 4 hours and cells were harvested by centrifugation. Lysis buffer (8 M Urea, 50 mM NaCl, 50 mM 4-(2hydroxyethyl)-1-piperazineethanesulfonic acid (EPPS) pH 8.5, Protease and Phosphatase inhibitors from Roche) was added to the cell pellets and homogenized by 20 passes through a 21 gauge (1.25 in. long) needle to achieve a cell lysate with a protein concentration between 1-4 mg mL^−1. A micro-BCA assay (Pierce™) was used to determine the final protein concentration of protein in the cell lysate. 200 μg of protein for each sample were reduced and alkylated as previously described in Donovan et al., Elife 7:e38430 (2018).
# Proteins were precipitated using methanol/chloroform. In brief, four volumes of methanol were added to the cell lysate, followed by one volume of chloroform, and finally three volumes of water. The mixture was vortexed and centrifuged to separate the chloroform phase from the aqueous phase. The precipitated protein was washed with three volumes of methanol, centrifuged and the resulting washed precipitated protein was allowed to air dry. Precipitated protein was resuspended in 4 M Urea, 50 mM HEPES pH 7.4, followed by dilution to 1 M urea with the addition of 200 mM EPPS, pH 8. Proteins were first digested with LysC (1:50; enzyme: protein) for 12 hours at room temperature. The LysC digestion was diluted down to 0.5 M Urea with 200 mM EPPS pH 8 and then digested with trypsin (1:50; enzyme:protein) for 6 hours at 37° C. Tandem mass tag (TMT) reagents (Thermo Fisher Scientific) were dissolved in anhydrous acetonitrile (ACN) according to manufacturer instructions. […] The sample channels were combined at a 1:1:1:1:1:1:1:1:1:1:1 ratio, desalted using C18 solid phase extraction cartridges (Waters®) and analyzed by LC-MS for channel ratio comparison. Samples were then combined using the adjusted volumes determined in the channel ratio analysis and dried down in a speed vacuum. […]
# Chain of Wee1 (P30291 whole entry): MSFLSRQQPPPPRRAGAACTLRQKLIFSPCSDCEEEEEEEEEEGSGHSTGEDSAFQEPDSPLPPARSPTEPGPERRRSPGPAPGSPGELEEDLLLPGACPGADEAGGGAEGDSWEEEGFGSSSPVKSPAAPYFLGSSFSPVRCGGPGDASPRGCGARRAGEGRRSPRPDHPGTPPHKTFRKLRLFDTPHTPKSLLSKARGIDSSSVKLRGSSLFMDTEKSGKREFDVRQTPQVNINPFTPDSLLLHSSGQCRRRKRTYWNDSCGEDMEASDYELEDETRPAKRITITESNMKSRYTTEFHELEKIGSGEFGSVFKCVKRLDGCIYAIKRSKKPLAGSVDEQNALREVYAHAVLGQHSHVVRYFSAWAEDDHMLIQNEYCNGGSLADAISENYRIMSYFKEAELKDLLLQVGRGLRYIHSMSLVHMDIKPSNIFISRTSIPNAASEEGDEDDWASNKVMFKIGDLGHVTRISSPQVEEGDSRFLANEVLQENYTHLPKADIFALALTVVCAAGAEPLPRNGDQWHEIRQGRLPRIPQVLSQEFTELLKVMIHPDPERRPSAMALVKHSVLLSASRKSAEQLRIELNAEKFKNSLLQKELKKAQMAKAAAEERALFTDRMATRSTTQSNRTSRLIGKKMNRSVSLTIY
compound,measurement,setting,value
"C=CCn1c(=O)c2cnc(Nc3ccc(N4CCN(CCCNc5cccc6c5C(=O)N(C5CCC(=O)NC5=O)C6=O)CC4)cc3)nc2n1-c1cccc(C(C)(C)O)n1 (stereo not shown) [Compound 13, 4-((3-(4-(4-((2-allyl-1-(6-(2-hydroxypropan-2-yl)pyridin-2-yl)-3-oxo-2,3-dihydro-1H-pyrazolo[3,4-d]pyrimidin-6-yl)amino)phenyl)piperazin-1-yl)propyl)amino)-2-(2,6-dioxopiperidin-3-yl)isoindoline-1,3-dione]",Concentration giving maximal Wee1 degradation,Wee1,100 nM
same,Dose from which pCDK1 Y15 is decreased,pCDK1 Y15; CRBN−/− MOLT4 cells,1 μM
same,Fold lower doses than AZD1775 for the same downstream effects,pCDK1 Y15; MOLT4 cells,up to 10 fold
same,Dose from which pCDK1 Y15 is reduced,pCDK1 Y15; parental MOLT4 cells,100 nM
same,ZFP91 degradation by proteomics,MOLT4 proteome,low levels of ZFP91 degradation
same,PLK1 downregulation by proteomics,MOLT4 proteome; 2 hours,No downregulation of PLK1
same,Wee1 abundance Log2FC,MOLT4 proteome; 2 hours,−1.97
